Reference: US10519111B2, “UV absorbing compounds, compositions comprising same and uses thereof” (CORAL SUNSCREEN PTY LTD, priority 2013, dated 2019)
Each block holds one compound with its values, some of them ahead of it.

Columns and labels:
[1] = UV absorption properties (λmax, molar extinction coefficient ε, efficiency E 1%, 1 cm); type: physicochemical
[2] = Critical wavelength (λcrit), approximate in-house measurement; type: physicochemical
Text: As the precise test for critical wavelength was unable to be replicated exactly by the inventors due to the need for specialist equipment and a specific calibration of the spectrophotometer, these values are only approximate to a degree. […] This represents a highly useful result and so, compounds based around this benzoyl substitution pattern shown, are especially preferred.

[3] = Table 12, 2-substituted compounds
[4] = Table 3, compounds from isocyanates or isothiocyanates
[5] = Table 7, values in order of the λmax values
[6] = Table 13B, miscellaneous compounds
[7] = Table 13B, values in order of the λmax values
[8] = Table 13B, values in order of the λmax values, in M-1 cm-1
[9] = Table 10, bis and mono enamine compounds
[10] = Table 6B, N-tert-butyl compounds

SMILES: COc1ccc(N2C=C(C(=O)Cc3ccccc3)C(C)(C)CC2)cc1 [drawing 133]
E (1%, 1 cm) ([1]; Table 8b): 1008 | λmax ([1]; Table 8b, N-phenyl compounds): 334 nm | ε ([1]; Table 8b, in M-1 cm-1): 33786 | λcrit ([2]; Table 8b): 350 nm

SMILES: C=CC(=O)C1=CN(CC(C)C)CCC1(C)C [drawing 112]
λmax ([1]; Table 7, unsaturated compounds): 330 nm | E (1%, 1 cm) [1, 5]: 915 | ε [1, 5]: 20500 M⁻¹ cm⁻¹ | λcrit ([2]; Table 7): 363 nm

SMILES: CCCCCCCCCC(=O)C1=CN(c2ccc(N3C=C(C(=O)CCCCCCCCC)C(C)(C)CC3)cc2)CCC1(C)C
λmax [1, 6]: 359 nm | E (1%, 1 cm) [1, 7]: 898 | ε [1, 8]: 54278 | λcrit ([2]; Table 13B): 378 nm

SMILES: CCC(=O)C1=CN(c2ccc(C)cc2)CCC1(C)C [drawing 135]
E (1%, 1 cm) ([1]; Table 8b): 1347 | λmax ([1]; Table 8b, N-phenyl compounds): 327 nm | ε ([1]; Table 8b, in M-1 cm-1): 34608 | λcrit ([2]; Table 8b): 348 nm

SMILES: Cc1cc(N2C=CC(C)(C)C=C2)n(C)n1 [drawing 152]
E (1%, 1 cm) ([1]; Table 10): 560 | λmax [1, 9]: 253 nm | ε ([1]; Table 10, in M-1 cm-1): 11371 | λcrit ([2]; Table 10): 350 nm

SMILES: CCC(=O)C1=CN(c2ccc(N3C=C(C(=O)CC)C(C)(C)CC3)cc2)CCC1(C)C
λmax [1, 6]: 357 nm | E (1%, 1 cm) [1, 7]: 1290 | ε [1, 8]: 52638 | λcrit ([2]; Table 13B): 377 nm

SMILES: CC(C)=CCCC(C)CC(=O)C1=CN(c2ccc(N3C=C(C(=O)CC(C)CCC=C(C)C)C(C)(C)CC3)cc2)CCC1(C)C (centres unmarked) [drawing 213]
λmax [1, 6]: 358 nm | E (1%, 1 cm) [1, 7]: 550 | ε [1, 8]: 33000 | λcrit ([2]; Table 13B): 378 nm

SMILES: CCOC(=O)c1cc(/C=C/C(=O)C2=CN(C(C)(C)C)CCC2(C)C)c(C(=O)OCC)cc1/C=C/C(=O)C1=CN(C(C)(C)C)CCC1(C)C
λmax [1, 6]: 383 nm | E (1%, 1 cm) [1, 7]: 355 | ε [1, 8]: 23457 | λcrit ([2]; Table 13B): 388 nm

SMILES: Cc1ccc(N2C=CC(C)(C)C=C2)cc1
E (1%, 1 cm) ([1]; Table 10): 1601 | λmax [1, 9]: 283 nm | ε ([1]; Table 10, in M-1 cm-1): 31871 | λcrit ([2]; Table 10): 317 nm

SMILES: CC(C)CN1C=C(C(=O)/C=C/c2ccc(C(F)(F)F)cc2)C(C)(C)CC1 [drawing 113]
λmax ([1]; Table 7, unsaturated compounds): 369 nm | E (1%, 1 cm) [1, 5]: 463 | ε [1, 5]: 17000 M⁻¹ cm⁻¹ | λcrit ([2]; Table 7): 388 nm

SMILES: Cc1ccc(N2C=C(C(=O)N(CCCCN(C(=O)C3=CN(c4ccc(C)cc4)CCC3(C)C)c3ccccc3)c3ccccc3)C(C)(C)CC2)cc1
λmax [1, 6]: 325 nm | E (1%, 1 cm) [1, 7]: 608 | ε [1, 8]: 42215 | λcrit ([2]; Table 13B): 346 nm

SMILES: CC1(C)CCN(C(C)(C)C)C=C1C(=O)CCCCCCCCC(=O)C1=CN(C(C)(C)C)CCC1(C)C [drawing 72]
λmax ([1]; Table 5, acylation of N-t-Bu enamine): 307 nm | Ε (1%, 1 cm) ([1]; Table 5, values in order of the λmax values): 1095 | ε ([1]; Table 5, values in order of the λmax values, in M-1 cm-1): 54797 | λcrit ([2]; Table 5): 322 nm

SMILES: COC(=O)c1cc(/C=C/C(=O)C2=CN(C(C)(C)C)CCC2(C)C)ccc1/C=C/C(=O)C1=CN(C(C)(C)C)CCC1(C)C
λmax [1, 6]: 383 nm | E (1%, 1 cm) [1, 7]: 525 | ε [1, 8]: 30128 | λcrit ([2]; Table 13B): 389 nm

SMILES: CCC(=O)O/C(=C\C1=CC(C)(C)CCN1CC(C)C)CC [drawing 165]
E (1%, 1 cm) ([1]; Table 12): 683 | ε ([1]; Table 12): 20000 M⁻¹ cm⁻¹ | λmax [1, 3]: 323 nm | λcrit ([2]; Table 12): 344 nm

SMILES: CCC(=O)C1=CN(CC(C)C)C=CC1(C)C [drawing 170]
E (1%, 1 cm) ([1]; Table 13A): 362 | ε ([1]; Table 13A): 8800 M⁻¹ cm⁻¹ | λmax ([1]; Table 13A, miscellaneous compounds): 366 nm | λcrit ([2]; Table 13A): 386 nm

SMILES: CCCCCCCC(=O)C1=CN(c2ccc(N(C)C)cc2)CCC1(C)C [drawing 134]
E (1%, 1 cm) ([1]; Table 8b): 785 | λmax ([1]; Table 8b, N-phenyl compounds): 338 nm | ε ([1]; Table 8b, in M-1 cm-1): 28040 | λcrit ([2]; Table 8b): 371 nm

SMILES: CC1(C)CCN(c2ccc(C(C)(C)C)cc2)C=C1C(=O)Nc1ccc(NC(=O)C2=CN(c3ccc(C(C)(C)C)cc3)CCC2(C)C)cc1 [drawing 68]
Ε (1%, 1 cm) ([1]; Table 4): 1054 | λmax ([1]; Table 4, N-aryl enamines with isocyanates): 331 nm | ε ([1]; Table 4, in M-1 cm-1): 68095 | λcrit ([2]; Table 4): 354 nm

SMILES: Cc1ccc(NC(=O)C2=CN(C(C)(C)C)CCC2(C)C)cc1NC(=O)C1=CN(C(C)(C)C)CCC1(C)C [drawing 62]
Ε (1%, 1 cm) ([1]; Table 3): 1174 | λmax [1, 4]: 308 nm | ε ([1]; Table 3, in M-1 cm-1): 59763 | λcrit ([2]; Table 3): 329 nm

SMILES: Cc1cc(-c2ccc(N3C=C(C(=O)C(F)(F)F)C(C)(C)CC3)c(C)c2)ccc1N1C=CC(C)(C)C(C(=O)C(F)(F)F)=C1
λmax [1, 6]: 326 nm | E (1%, 1 cm) [1, 7]: 859 | ε [1, 8]: 50670 | λcrit ([2]; Table 13B): 378 nm

SMILES: Cc1ccc(N2C=C(C(=O)CCCCCCCCC(=O)C3=CN(c4ccc(C)cc4)CCC3(C)C)C(C)(C)CC2)cc1 [drawing 131]
E (1%, 1 cm) ([1]; Table 8b): 928 | λmax ([1]; Table 8b, N-phenyl compounds): 328 nm | ε ([1]; Table 8b, in M-1 cm-1): 52737 | λcrit ([2]; Table 8b): 349 nm

SMILES: CC1(C)CCN(C(C)(C)C)C=C1C(=O)NCCCCCCNC(=O)C1=CN(C(C)(C)C)CCC1(C)C [drawing 59]
Ε (1%, 1 cm) ([1]; Table 3): 619 | λmax [1, 4]: 289 nm | ε ([1]; Table 3, in M-1 cm-1): 31072 | λcrit ([2]; Table 3): 314 nm

SMILES: CC1(C)CCN(C(C)(C)C)C=C1C(=O)/C=C/c1ccc(/C=C/C(=O)C2=CN(C(C)(C)C)CCC2(C)C)cc1
λmax [1, 6]: 386 nm | E (1%, 1 cm) [1, 7]: 705 | ε [1, 8]: 36404 | λcrit ([2]; Table 13B): 390 nm

Now from value to compound:

E (1%, 1 cm) ([1]; Table 12): 268 | ε ([1]; Table 12): 8000 M⁻¹ cm⁻¹ | λmax [1, 3]: 338 nm | λcrit ([2]; Table 12): 365 nm
SMILES: CCC(=O)C1=C(c2ccccc2)N(CC(C)C)CCC1(C)C [drawing 163]

Ε (1%, 1 cm) ([1]; Table 3): 506 | λmax [1, 4]: 312 nm | ε ([1]; Table 3, in M-1 cm-1): 15174 | λcrit ([2]; Table 3): 337 nm
SMILES: CN(C(=O)C1=CN(C(C)(C)C)CCC1(C)C)c1ccccc1 [drawing 58]

E (1%, 1 cm) ([1]; Table 8b): 793 | λmax ([1]; Table 8b, N-phenyl compounds): 321 nm | ε ([1]; Table 8b, in M-1 cm-1): 23247 | λcrit ([2]; Table 8b): 346 nm
SMILES: CCC(=O)C1=CN(c2cccc3ccccc23)CCC1(C)C [drawing 137]

λmax ([1]; Table 7, unsaturated compounds): 360 nm | E (1%, 1 cm) [1, 5]: 533 | ε [1, 5]: 16000 M⁻¹ cm⁻¹ | λcrit ([2]; Table 7): 383 nm
SMILES: CC(C)CN1C=C(C(=O)/C=C/c2ccccc2)C(C)(C)CC1 [drawing 111]

E (1%, 1 cm) ([1]; Table 6B): 781 | λmax [1, 10]: 360 nm | ε ([1]; Table 6B, in M-1 cm-1): 23198 | λcrit ([2]; Table 6B): 385 nm
SMILES: CC1(C)CCN(C(C)(C)C)C=C1C(=O)/C=C/c1ccccc1 [drawing 93]

λmax [1, 6]: 315 nm | E (1%, 1 cm) [1, 7]: 737 | ε [1, 8]: 26695 | λcrit ([2]; Table 13B): 361 nm
SMILES: CC1(C)CCN(C(C)(C)C)C=C1C(=O)c1ccc(Nc2ccccc2)cc1

E (1%, 1 cm) ([1]; Table 8b): 759 | λmax ([1]; Table 8b, N-phenyl compounds): 339 nm | ε ([1]; Table 8b, in M-1 cm-1): 26633 | λcrit ([2]; Table 8b): 362 nm
SMILES: COc1ccc(N2C=C(C(=O)COc3ccccc3)C(C)(C)CC2)cc1 [drawing 132]

E (1%, 1 cm) ([1]; Table 6B): 949 | λmax [1, 10]: 317 nm | ε ([1]; Table 6B, in M-1 cm-1): 32556 | λcrit ([2]; Table 6B): 344 nm
SMILES: CC(C)(C)Oc1ccc(C(=O)C2=CN(C(C)(C)C)CCC2(C)C)cc1 [drawing 96]

Ε (1%, 1 cm) ([1]; Table 3): 950 | λmax [1, 4]: 304 nm | ε ([1]; Table 3, in M-1 cm-1): 34588 | λcrit ([2]; Table 3): 319 nm
SMILES: Cc1ccc(S(=O)(=O)NC(=O)C2=CN(C(C)(C)C)CCC2(C)C)cc1 [drawing 64]

E (1%, 1 cm) ([1]; Table 8a): 629 | ε ([1]; Table 8a): 23300 M⁻¹ cm⁻¹ | λmax ([1]; Table 8a, N-phenyl compounds): 338 nm | λcrit ([2]; Table 8a): 366 nm
SMILES: CC1(C)CCN(c2ccccc2)C=C1C(=O)c1ccc(Br)cc1 [drawing 124]

Ε (1%, 1 cm) ([1]; Table 3): 1129 | λmax [1, 4]: 313 nm | ε ([1]; Table 3, in M-1 cm-1): 55779 | λcrit ([2]; Table 3): 328 nm
SMILES: CC1(C)CCN(C(C)(C)C)C=C1C(=O)Nc1cccc(NC(=O)C2=CN(C(C)(C)C)CCC2(C)C)c1 [drawing 66]

Ε (1%, 1 cm) ([1]; Table 3): 1217 | λmax [1, 4]: 308 nm | ε ([1]; Table 3, in M-1 cm-1): 34834 | λcrit ([2]; Table 3): 326 nm
SMILES: CC1(C)CCN(C(C)(C)C)C=C1C(=O)Nc1ccccc1 [drawing 57]

E (1%, 1 cm) ([1]; Table 6B): 793 | λmax [1, 10]: 333 nm | ε ([1]; Table 6B, in M-1 cm-1): 24966 | λcrit ([2]; Table 6B): 361 nm
SMILES: CN(C)c1ccc(C(=O)C2=CN(C(C)(C)C)CCC2(C)C)cc1 [drawing 95]
